In ChEMBL document CHEMBL1201862, “PubChem BioAssay data set” (2004):
One block for each molecule: values may come before it. Activity calls are given as the source filed them. Unless noted, the rule behind the calls is not given here.

Legend:
Plasmodium falciparum [1] = assay: Primary qHTS for delayed death inhibitors of the malarial parasite plastid, 96 hour incubation. [Related pubchem assays (depositor defined):AID488745, AID488752, AID488774, AID504848, AID504850]; assay type: functional; details: read-out: Potency
Plasmodium falciparum [2] = assay: Primary qHTS for delayed death inhibitors of the malarial parasite plastid, 48 hour incubation. [Related pubchem assays (depositor defined):AID488752, AID488774, AID504848, AID504850]; assay type: functional; details: read-out: Potency
INS1 [3] = assay: INS-1E mitochondrial potential loss inhibitors – cell-based, JC-1 fluorescence, dry powder, set 2, dose response (AID 488867); assay type: functional; details: Rattus norvegicus
INS1 [4] = assay: beta-cell survival under cytokine stress – INS-1E, ATP luminescence, dry powder, dose response (AID 488844); assay type: functional, cell-based; details: Rattus norvegicus
INS1 [5] = assay: INS-1E mitochondrial potential rescue under cytokines – cell-based, JC-1 fluorescence ratio, dry powder, dose response (AID 488931); assay type: functional; details: Rattus norvegicus
Hexokinase HKDC1 = target: T1, Hexokinase HKDC1 (Homo sapiens, UniProt Q2TB90); assay: SAR analysis of small molecule inhibitors of hexokinase domain containing I (HKDC1). [Related pubchem assays (depositor defined):AID493160, AID493190]; assay type: functional
T1 sequence (Q2TB90 whole entry): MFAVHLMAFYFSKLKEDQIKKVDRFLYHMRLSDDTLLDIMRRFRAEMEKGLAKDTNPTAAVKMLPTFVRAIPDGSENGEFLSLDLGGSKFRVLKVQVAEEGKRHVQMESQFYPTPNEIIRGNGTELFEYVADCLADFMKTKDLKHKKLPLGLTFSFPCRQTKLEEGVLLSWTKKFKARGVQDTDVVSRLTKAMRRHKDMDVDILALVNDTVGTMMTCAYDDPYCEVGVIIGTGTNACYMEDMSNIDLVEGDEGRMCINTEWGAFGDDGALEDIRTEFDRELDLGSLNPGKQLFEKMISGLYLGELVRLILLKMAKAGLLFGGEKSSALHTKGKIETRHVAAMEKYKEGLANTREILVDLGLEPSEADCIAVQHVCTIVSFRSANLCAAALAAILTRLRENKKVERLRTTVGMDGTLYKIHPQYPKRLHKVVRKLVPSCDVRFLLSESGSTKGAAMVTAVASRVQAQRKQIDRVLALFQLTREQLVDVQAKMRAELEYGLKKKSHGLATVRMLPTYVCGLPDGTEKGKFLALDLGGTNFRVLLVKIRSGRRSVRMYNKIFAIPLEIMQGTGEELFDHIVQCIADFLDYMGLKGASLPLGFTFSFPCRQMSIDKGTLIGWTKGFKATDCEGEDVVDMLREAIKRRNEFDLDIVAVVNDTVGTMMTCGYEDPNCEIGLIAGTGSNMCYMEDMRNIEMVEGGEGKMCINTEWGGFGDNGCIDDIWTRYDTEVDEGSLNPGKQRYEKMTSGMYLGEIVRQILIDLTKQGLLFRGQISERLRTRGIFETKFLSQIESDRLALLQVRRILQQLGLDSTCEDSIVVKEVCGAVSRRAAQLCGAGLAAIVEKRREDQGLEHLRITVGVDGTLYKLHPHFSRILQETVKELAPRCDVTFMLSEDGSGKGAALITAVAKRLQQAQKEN

Hexokinase-1 = Hexokinase-1 (Homo sapiens, UniProt P19367); assay: SAR analysis of small molecule inhibitors of hexokinase domain containing I (HKDC1) in the hexokinase 1 selectivity assay. [Related pubchem assays (depositor defined):AID493160, AID493190]; assay type: functional
Sequence of Hexokinase-1 (P19367 whole entry, the tested form may be a part): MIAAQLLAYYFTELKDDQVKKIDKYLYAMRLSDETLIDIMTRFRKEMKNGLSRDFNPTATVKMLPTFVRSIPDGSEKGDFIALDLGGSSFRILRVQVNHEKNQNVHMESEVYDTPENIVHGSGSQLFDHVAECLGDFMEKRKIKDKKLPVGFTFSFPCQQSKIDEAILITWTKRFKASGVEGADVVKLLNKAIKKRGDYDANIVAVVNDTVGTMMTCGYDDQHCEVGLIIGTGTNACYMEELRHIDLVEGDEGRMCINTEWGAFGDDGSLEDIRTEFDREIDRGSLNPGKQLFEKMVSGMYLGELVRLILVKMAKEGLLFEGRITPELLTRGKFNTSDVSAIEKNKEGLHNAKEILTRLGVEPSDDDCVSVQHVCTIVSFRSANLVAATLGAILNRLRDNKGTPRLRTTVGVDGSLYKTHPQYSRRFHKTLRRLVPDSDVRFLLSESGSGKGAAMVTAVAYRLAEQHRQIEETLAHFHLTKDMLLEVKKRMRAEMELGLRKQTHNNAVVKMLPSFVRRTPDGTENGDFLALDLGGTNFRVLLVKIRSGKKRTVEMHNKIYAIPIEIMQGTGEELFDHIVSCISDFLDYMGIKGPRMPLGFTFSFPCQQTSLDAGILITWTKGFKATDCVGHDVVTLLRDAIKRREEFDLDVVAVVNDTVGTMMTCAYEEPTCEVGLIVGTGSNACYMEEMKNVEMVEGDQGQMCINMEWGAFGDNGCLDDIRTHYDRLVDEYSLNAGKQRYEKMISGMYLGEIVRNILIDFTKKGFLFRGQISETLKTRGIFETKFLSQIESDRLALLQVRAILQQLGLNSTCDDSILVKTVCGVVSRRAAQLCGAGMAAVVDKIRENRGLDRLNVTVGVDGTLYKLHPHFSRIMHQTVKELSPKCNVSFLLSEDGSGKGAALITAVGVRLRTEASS

Compound: CN(C)C1(CNC(=O)c2ccc(Cl)c(S(N)(=O)=O)c2)CCCCC1
AC50 (Plasmodium falciparum [1]): 20.8 µM (inactive)
AC50 (Plasmodium falciparum [2]): 9.29 µM (inactive)

Compound: COc1ccc(S(=O)(=O)N(C)C[C@H]2Oc3c(NC(=O)Nc4cccc5ccccc45)cccc3C(=O)N([C@@H](C)CO)C[C@@H]2C)cc1
AC50 (INS1 [3]): > 260 µM (inactive)
AC50 (INS1 [4]): 85 µM (active)
AC50 (INS1 [5]): 104 µM (active)

IC50 (Hexokinase HKDC1): > 80 µM (inactive)
IC50 (Hexokinase-1): > 80 µM (inactive)
Compound: COc1cc2c(cc1OC)-c1cc(NCc3ccccc3)nc(=O)n1CC2
